{
  "source": "patent US20090149531A1",
  "about": "“CHEMICAL COMPOSITION DERIVED FROM P-HYDROXYPHENYL PROPIONIC ACID FOR THE TREATMENT OF PSORIASIS” (APOTEKNOS PARA LA PIEL, S.L., priority 2007, published 2009)",
  "test_system": "Salmonella typhimurium TA98",
  "test": "Ames test without external metabolisation, TA98",
  "format": "cell-based",
  "conditions": "no metabolic activation; for Colonies per plate: individual plates 1-4, A; for Colonies per plate / Colonies per plate, Mean: 48 hours; for Mutagenic Ind,: relative to H+/B+",
  "method": "The mutagenic activity of compound A was evaluated using the Ames test without external metabolisation. The Ames test is based on the use of bacterial strains to detect mutations in the DNA in vitro using bacterial strains that make it possible to detect types of damage to the genome.\nBacteria of 4 strains of Salmonella typhimurium that are internationally recommended for this test, TA1535, TA1537, TA98 and TA100, were used. The test was carried out according to highly standardised protocols. […] The test was carried out without external metabolic activation. The plates were incubated at 37° C. and the reverting colonies were counted after 48 hours.",
  "note": "Values joined by “and” are separate entries in the source; they are usually repeats but may differ in a detail not shown here. Equal values may be shown once.",
  "data": [
    {"smiles": "C=C1C(=O)O[C@H](CCc2ccc(OC)cc2)[C@@H]1C", "note": "[Compound A]", "values": [
      {"measurement": "Colonies per plate", "setting": "Comp. A 10 μg/ml", "value": "9 and 6 and 12 and 14"},
      {"measurement": "Colonies per plate, Mean", "setting": "Comp. A 10 μg/ml", "value": 10.25},
      {"measurement": "Mutagenic Ind,", "setting": "Comp. A 10 μg/ml", "value": 1.079},
      {"measurement": "Colonies per plate", "setting": "Comp. A 100 μg/ml", "value": "15 and 12 (2×) and 8"},
      {"measurement": "Colonies per plate, Mean", "setting": "Comp. A 100 μg/ml", "value": 11.75},
      {"measurement": "Mutagenic Ind,", "setting": "Comp. A 100 μg/ml", "value": 1.237},
      {"measurement": "Colonies per plate", "setting": "Comp. A 1 mg/ml", "value": "8 and 4 and 6 and 17"},
      {"measurement": "Colonies per plate, Mean", "setting": "Comp. A 1 mg/ml", "value": 8.75},
      {"measurement": "Mutagenic Ind,", "setting": "Comp. A 1 mg/ml", "value": 0.9211},
      {"measurement": "Ames test result (mutagenic effects)", "setting": "TA98, concentrations evaluated 10 μg/ml to 1 mg/ml", "value": "negative"}
    ]}
  ]
}
